Experiment: Tissue distribution by quantitative whole-body autoradiography (QWBA)
Type: in vivo, male Sprague Dawley and Long-Evans rats
Conditions: for AUCall Ratio (PO/IV) / Cmax Ratio (PO/IV): 15 mg/kg, Group 7 vs Group 4
Protocol: The study utilized 4 groups of male SD rats (albino), and 3 groups of male LE rats (pigmented); a total of 39 rats. All animals were obtained from Hilltop Lab Animals, Inc. (Scottdale, Pa.). […] Rats in Group 5 were administered a single 2-h IV infusion of [^14C]brincidofovir at a target dose of 2 mg/kg. […] Three dosing formulations (one for high dose IV, one for low dose IV, and one for PO dose) were prepared at QPS on the day of dosing. The IV formulation for Groups 1, 2, 3, and 4 contained a vehicle of 10 mM sodium phosphate buffer in 5% dextrose solution at pH 8.0(±0.1).
Each animal, at their respective termination time points, was euthanized for QWBA analysis immediately after blood collection. One rat per time point per Group was euthanized as listed below.
The blood samples were maintained on wet ice (approximately 4° C.) and then centrifuged to obtain plasma within 1 h of the blood collection time. Centrifuge settings were recorded in the study notebook. Duplicate aliquots of plasma (0.050 mL) were analyzed for radioactivity using direct counting by LSC, and residual plasma was stored at approximately −70° C. and was saved for possible future analysis under a separate study protocol. Residual red blood cells were discarded as radioactive waste.
The pinna, distal limbs, hair, and tail were removed from each frozen carcass and each frozen carcass was embedded in an aqueous suspension of approximately 2% (w/v) carboxymethylcellulose and frozen into a block. The blocks were stored at approximately −20° C. prior to sectioning. Each blocked carcass was mounted on the object stage of a cryomicrotome (Leica CM3600 Cryomacrocut, Nussloch, Germany and Vibratome 9800, St. Louis, Mo.) maintained at approximately −20° C. and internal standards (3), which were plasma fortified with [^14C]-glucose at one concentration (approximately 0.05 μCi/mL), were placed into the frozen blocks, prior to sectioning, and were used for section thickness quality control. A number of whole-body sections (approximately 40 μm thick) were taken in the sagittal plane at various levels of interest using a whole-body cryomicrotome set at −20° C. Sagittal sections (20-50 μm thick) of frozen carcasses were exposed to phosphor imaging plates. Regions of images in tissues were converted to concentrations using standards. All of the major tissues, organs, and biological fluids were represented.
Tissue concentration data was determined for the following tissues and/or contents: adipose (brown and white), adrenal gland, bile (in duct), blood (cardiac), bone, bone marrow, brain (cerebrum, cerebellum, medulla), cecum (and contents), large intestine (and contents), epididymis, esophagus, eye (uvea and lens), Harderian gland, heart, kidney (cortex and medulla), liver, lung, lymph node, pancreas, pituitary gland, prostate gland, salivary gland, seminal vesicles, skeletal muscle, skin (pigmented and non-pigmented), small intestine (and contents), stomach (gastric mucosa and contents), spleen, spinal cord, testis, thymus, thyroid, and urinary bladder (and contents).
The imaging plate and sections were placed in light-tight exposure cassettes, in a copper-lined lead safe, for a 4-day exposure at room temperature. […] Quantification was performed by image densitometry using MCD image analysis software (v. 7.0, Interfocus Imaging Ltd) and a standard curve constructed from the integrated response [i.e., Molecular Dynamics Counts per square millimeter (MDC/mm^2)] and the nominal concentrations of the ^14C-calibration standards. The concentrations of radioactivity were expressed as the μg equivalents of [^14C]brincidofovir per gram sample (μg equiv/g). A lower limit of quantification (LLOQ) was applied to the data (See section 6.7.4).
Tissue concentrations that fell below the LLOQ were identified as being below the quantification limit (BQL). Tissue areas that were not visualized on autoradiographic images were identified as no sample (NS) and reported as BQL.

## CCCCCCCCCCCCCCCCOCCCOP(=O)(O)CO[C@H](CO)Cn1ccc(N)nc1=O [[^14C] brincidofovir]
Adipose (brown)
  AUCall Ratio (PO/IV): 0.25
  Cmax Ratio (PO/IV): 0.18
Adipose (brown), 2 h IV infusion 15 mg/kg, Group 4
  AUCall: 96.6220 μg equiv · h/g
Adipose (brown), 2 h IV infusion 15 mg/kg, Group 4, LLOQ 0.036
  Tissue Concentration (168 h): 0.132 μg equiv/g
Adipose (brown), PO 15 mg/kg, Group 7, LLOQ 0.034
  Tissue Concentration (168 h): 0.037 μg equiv/g
Adipose (brown), PO 15 mg/kg, Group 7
  AUCall: 24.3703 μg equiv · h/g
Adipose (white)
  AUCall Ratio (PO/IV): 0.16
  Cmax Ratio (PO/IV): 0.24
Adipose (white), 2 h IV infusion 15 mg/kg, Group 4
  AUCall: 7.1955 μg equiv · h/g
Adipose (white), 2 h IV infusion 15 mg/kg, Group 4, LLOQ 0.036
  Tissue Concentration (168 h): BQL
Adipose (white), PO 15 mg/kg, Group 7, LLOQ 0.034
  Tissue Concentration (168 h): BQL
Adipose (white), PO 15 mg/kg, Group 7
  AUCall: 1.1215 μg equiv · h/g
Adrenal Gland
  AUCall Ratio (PO/IV): 0.19
  Cmax Ratio (PO/IV): 0.28
Adrenal Gland, 2 h IV infusion 15 mg/kg, Group 4
  AUCall: 384.2580 μg equiv · h/g
Adrenal Gland, 2 h IV infusion 15 mg/kg, Group 4, LLOQ 0.036
  Tissue Concentration (168 h): 0.49 μg equiv/g
Adrenal Gland, PO 15 mg/kg, Group 7, LLOQ 0.034
  Tissue Concentration (168 h): 0.058 μg equiv/g
Adrenal Gland, PO 15 mg/kg, Group 7
  AUCall: 74.5860 μg equiv · h/g
Blood (cardiac)
  AUCall Ratio (PO/IV): 0.48
  Cmax Ratio (PO/IV): 0.21
Blood (cardiac), 2 h IV infusion 15 mg/kg, Group 4
  AUCall: 45.3555 μg equiv · h/g
Blood (cardiac), 2 h IV infusion 15 mg/kg, Group 4, LLOQ 0.036
  Tissue Concentration (168 h): BQL
Blood (cardiac), PO 15 mg/kg, Group 7, LLOQ 0.034
  Tissue Concentration (168 h): BQL
Blood (cardiac), PO 15 mg/kg, Group 7
  AUCall: 21.9165 μg equiv · h/g
Bone Marrow
  AUCall Ratio (PO/IV): 0.35
  Cmax Ratio (PO/IV): 0.12
Bone Marrow, 2 h IV infusion 15 mg/kg, Group 4
  AUCall: 197.3860 μg equiv · h/g
Bone Marrow, 2 h IV infusion 15 mg/kg, Group 4, LLOQ 0.036
  Tissue Concentration (168 h): 0.232 μg equiv/g
Bone Marrow, PO 15 mg/kg, Group 7, LLOQ 0.034
  Tissue Concentration (168 h): 0.094 μg equiv/g
Bone Marrow, PO 15 mg/kg, Group 7
  AUCall: 68.7413 μg equiv · h/g
Bone
  AUCall Ratio (PO/IV): 0.30
  Cmax Ratio (PO/IV): 0.39
Bone, 2 h IV infusion 15 mg/kg, Group 4
  AUCall: 6.1805 μg equiv · h/g
Bone, 2 h IV infusion 15 mg/kg, Group 4, LLOQ 0.036
  Tissue Concentration (168 h): BQL
Bone, PO 15 mg/kg, Group 7, LLOQ 0.034
  Tissue Concentration (168 h): BQL
Bone, PO 15 mg/kg, Group 7
  AUCall: 1.8470 μg equiv · h/g
Brain (cerebellum)
  AUCall Ratio (PO/IV): 0.07
  Cmax Ratio (PO/IV): 0.07
Brain (cerebellum), 2 h IV infusion 15 mg/kg, Group 4
  AUCall: 12.1870 μg equiv · h/g
Brain (cerebellum), 2 h IV infusion 15 mg/kg, Group 4, LLOQ 0.036
  Tissue Concentration (168 h): BQL
Brain (cerebellum), PO 15 mg/kg, Group 7, LLOQ 0.034
  Tissue Concentration (168 h): BQL
Brain (cerebellum), PO 15 mg/kg, Group 7
  AUCall: 0.8610 μg equiv · h/g
Brain (cerebrum)
  AUCall Ratio (PO/IV): 0.08
  Cmax Ratio (PO/IV): 0.07
Brain (cerebrum), 2 h IV infusion 15 mg/kg, Group 4
  AUCall: 9.1765 μg equiv · h/g
Brain (cerebrum), 2 h IV infusion 15 mg/kg, Group 4, LLOQ 0.036
  Tissue Concentration (168 h): BQL
Brain (cerebrum), PO 15 mg/kg, Group 7, LLOQ 0.034
  Tissue Concentration (168 h): BQL
Brain (cerebrum), PO 15 mg/kg, Group 7
  AUCall: 0.7650 μg equiv · h/g
Brain (medulla)
  AUCall Ratio (PO/IV): 0.06
  Cmax Ratio (PO/IV): 0.06
Brain (medulla), 2 h IV infusion 15 mg/kg, Group 4
  AUCall: 9.7470 μg equiv · h/g
Brain (medulla), 2 h IV infusion 15 mg/kg, Group 4, LLOQ 0.036
  Tissue Concentration (168 h): BQL
Brain (medulla), PO 15 mg/kg, Group 7, LLOQ 0.034
  Tissue Concentration (168 h): BQL
Brain (medulla), PO 15 mg/kg, Group 7
  AUCall: 0.5770 μg equiv · h/g
Cecum
  AUCall Ratio (PO/IV): 0.48
  Cmax Ratio (PO/IV): 1.07
Cecum, 2 h IV infusion 15 mg/kg, Group 4
  AUCall: 360.7580 μg equiv · h/g
Cecum, 2 h IV infusion 15 mg/kg, Group 4, LLOQ 0.036
  Tissue Concentration (168 h): 0.08 μg equiv/g
Cecum, PO 15 mg/kg, Group 7, LLOQ 0.034
  Tissue Concentration (168 h): 0.137 μg equiv/g
Cecum, PO 15 mg/kg, Group 7
  AUCall: 174.4118 μg equiv · h/g
Epididymis
  AUCall Ratio (PO/IV): 0.33
  Cmax Ratio (PO/IV): 0.16
Epididymis, 2 h IV infusion 15 mg/kg, Group 4
  AUCall: 95.0160 μg equiv · h/g
Epididymis, 2 h IV infusion 15 mg/kg, Group 4, LLOQ 0.036
  Tissue Concentration (168 h): 0.129 μg equiv/g
Epididymis, PO 15 mg/kg, Group 7, LLOQ 0.034
  Tissue Concentration (168 h): 0.042 μg equiv/g
Epididymis, PO 15 mg/kg, Group 7
  AUCall: 31.1150 μg equiv · h/g
Esophagus
  AUCall Ratio (PO/IV): 0.38
  Cmax Ratio (PO/IV): 1.89
Esophagus, 2 h IV infusion 15 mg/kg, Group 4
  AUCall: 73.1850 μg equiv · h/g
Esophagus, 2 h IV infusion 15 mg/kg, Group 4, LLOQ 0.036
  Tissue Concentration (168 h): 0.041 μg equiv/g
Esophagus, PO 15 mg/kg, Group 7, LLOQ 0.034
  Tissue Concentration (168 h): BQL
Esophagus, PO 15 mg/kg, Group 7
  AUCall: 27.9015 μg equiv · h/g
Eye (lens), 2 h IV infusion 15 mg/kg, Group 4
  AUCall: 0.1545 μg equiv · h/g
Eye (lens), 2 h IV infusion 15 mg/kg, Group 4, LLOQ 0.036
  Tissue Concentration (168 h): BQL
Eye (lens), PO 15 mg/kg, Group 7, LLOQ 0.034
  Tissue Concentration (168 h): BQL
Eye (uveal tract)
  AUCall Ratio (PO/IV): 0.32
  Cmax Ratio (PO/IV): 0.43
Eye (uveal tract), 2 h IV infusion 15 mg/kg, Group 4
  AUCall: 51.5575 μg equiv · h/g
Eye (uveal tract), 2 h IV infusion 15 mg/kg, Group 4, LLOQ 0.036
  Tissue Concentration (168 h): BQL
Eye (uveal tract), PO 15 mg/kg, Group 7, LLOQ 0.034
  Tissue Concentration (168 h): BQL
Eye (uveal tract), PO 15 mg/kg, Group 7
  AUCall: 16.2765 μg equiv · h/g
Harderian Gland
  AUCall Ratio (PO/IV): 0.25
  Cmax Ratio (PO/IV): 0.12
Harderian Gland, 2 h IV infusion 15 mg/kg, Group 4
  AUCall: 257.6905 μg equiv · h/g
Harderian Gland, 2 h IV infusion 15 mg/kg, Group 4, LLOQ 0.036
  Tissue Concentration (168 h): 0.403 μg equiv/g
Harderian Gland, PO 15 mg/kg, Group 7, LLOQ 0.034
  Tissue Concentration (168 h): 0.11 μg equiv/g
Harderian Gland, PO 15 mg/kg, Group 7
  AUCall: 63.7645 μg equiv · h/g
Heart
  AUCall Ratio (PO/IV): 0.54
  Cmax Ratio (PO/IV): 0.15
Heart, 2 h IV infusion 15 mg/kg, Group 4
  AUCall: 58.1205 μg equiv · h/g
Heart, 2 h IV infusion 15 mg/kg, Group 4, LLOQ 0.036
  Tissue Concentration (168 h): 0.062 μg equiv/g
Heart, PO 15 mg/kg, Group 7, LLOQ 0.034
  Tissue Concentration (168 h): 0.045 μg equiv/g
Heart, PO 15 mg/kg, Group 7
  AUCall: 31.1603 μg equiv · h/g
Kidney Cortex
  AUCall Ratio (PO/IV): 0.42
  Cmax Ratio (PO/IV): 0.18
Kidney Cortex, 2 h IV infusion 15 mg/kg, Group 4
  AUCall: 1919.6850 μg equiv · h/g
Kidney Cortex, 2 h IV infusion 15 mg/kg, Group 4, LLOQ 0.036
  Tissue Concentration (168 h): 0.33 μg equiv/g
Kidney Cortex, PO 15 mg/kg, Group 7, LLOQ 0.034
  Tissue Concentration (168 h): 0.342 μg equiv/g
Kidney Cortex, PO 15 mg/kg, Group 7
  AUCall: 804.4980 μg equiv · h/g
Kidney Medulla
  AUCall Ratio (PO/IV): 0.48
  Cmax Ratio (PO/IV): 0.34
Kidney Medulla, 2 h IV infusion 15 mg/kg, Group 4
  AUCall: 717.8445 μg equiv · h/g
Kidney Medulla, 2 h IV infusion 15 mg/kg, Group 4, LLOQ 0.036
  Tissue Concentration (168 h): 0.138 μg equiv/g
Kidney Medulla, PO 15 mg/kg, Group 7, LLOQ 0.034
  Tissue Concentration (168 h): 0.201 μg equiv/g
Kidney Medulla, PO 15 mg/kg, Group 7
  AUCall: 342.0130 μg equiv · h/g
Large Intestine
  AUCall Ratio (PO/IV): 0.45
  Cmax Ratio (PO/IV): 0.61
Large Intestine, 2 h IV infusion 15 mg/kg, Group 4
  AUCall: 310.7965 μg equiv · h/g
Large Intestine, 2 h IV infusion 15 mg/kg, Group 4, LLOQ 0.036
  Tissue Concentration (168 h): 0.103 μg equiv/g
Large Intestine, PO 15 mg/kg, Group 7, LLOQ 0.034
  Tissue Concentration (168 h): 0.06 μg equiv/g
Large Intestine, PO 15 mg/kg, Group 7
  AUCall: 140.3313 μg equiv · h/g
Liver
  AUCall Ratio (PO/IV): 0.66
